From PubChem BioAssay (NCI)
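Method: 48-hour compound exposure of cells in 96-well plates, five concentrations, linear interpolation of endpoints. Abbreviation: GI50, concentration required for 50% inhibition of growth. TGI: concentration producing complete growth inhibition.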

Assays:
Assay in all cases: NCI anticancer screen, dose series, 48 h
[1] = system: SNB-19 CNS
[2] = system: SF-268 CNS
[3] = system: M14 melanoma
[4] = system: NCI-H522 lung
[5] = system: A498 renal
[6] = system: OVCAR-5 ovarian
[7] = system: RPMI-8226 leukemia
[8] = system: CAKI-1 renal
[9] = system: 786-0 renal
[10] = system: SK-MEL-28 melanoma
[11] = system: OVCAR-8 ovarian
[12] = system: HOP-62 NSCLC
[13] = system: UACC-257 melanoma
[14] = system: KM12 colon
[15] = system: SR leukemia
[16] = system: NCI-H23 lung
[17] = system: SW-620 colon
[18] = system: ACHN renal
[19] = system: SF-295 CNS
[20] = system: COLO 205 colon
[21] = system: HCC-2998 colon
[22] = system: MOLT-4 leukemia
[23] = system: BT-549 breast
[24] = system: HOP-92 NSCLC
[25] = system: NCI-H460 lung
[26] = system: HL-60(TB) leukemia
[27] = system: SNB-75 CNS
[28] = system: SN12C renal
[29] = system: A549 NSCLC
[30] = system: NCI-H226 lung
[31] = system: HT29 colon
[32] = system: RXF 393 renal
[33] = system: MCF7 breast
[34] = system: U251 CNS
[35] = system: SF-539 CNS
[36] = system: SK-OV-3 ovarian
[37] = system: DU-145 prostate
[38] = system: TK-10 renal
[39] = system: MDA-MB-231 breast
[40] = system: CCRF-CEM leukemia
[41] = system: HCT-116 colon
[42] = system: T-47D breast
[43] = system: IGROV1 ovarian
[44] = system: MDA-MB-435
[45] = system: HCT-15 colon
[46] = system: UACC-62 melanoma
[47] = system: OVCAR-3 ovarian
[48] = system: UO-31 renal
[49] = system: K-562 leukemia
[50] = system: NCI/ADR-RES ovarian
[51] = system: LOX IMVI melanoma
[52] = system: HS 578T breast
[53] = system: SK-MEL-5 melanoma
[54] = system: OVCAR-4 ovarian
[55] = system: MALME-3M melanoma

Work on `CN1CCc2c(c3ccccc3c3ccccc23)C1` yielded a GI50 [1] of 4.38 µM, a TGI [1] of 39.1 µM and a GI50 [2] of 6.46 µM. It also gave a TGI [2] of 28 µM, a GI50 [3] of 4.34 µM and a TGI [3] of 16.7 µM. It also gave a GI50 [4] of 2760 nM, a TGI [4] of 8.49 µM and a GI50 [5] of 1810 nM. It also gave a TGI [5] of 7.41 µM, a GI50 [6] of 10.9 µM and a TGI [6] of 38.1 µM. It also gave a GI50 [7] of 3.66 µM, a TGI [7] of 12.7 µM and a GI50 [8] of 4.12 µM. For the same compound, the TGI [8] was 18.5 µM, the GI50 [9] was 6.23 µM and the TGI [9] was 21.3 µM. The GI50 [10] was 4.75 µM, the TGI [10] was 18.9 µM and the GI50 [11] was 4.46 µM. For the same compound, the TGI [11] was 43.2 µM, the GI50 [12] was 7.11 µM and the TGI [12] was 26.1 µM. For the same compound, the GI50 [13] was 2870 nM, the TGI [13] was 8.72 µM and the GI50 [14] was 4.91 µM. For the same compound, the TGI [14] was 16.8 µM, the GI50 [15] was 3.44 µM and the TGI [15] was 15.6 µM. For the same compound, the GI50 [16] was 5.24 µM, the TGI [16] was 21.7 µM and the GI50 [17] was 3.59 µM. It also gave a TGI [17] of 15.3 µM, a GI50 [18] of 3.6 µM and a TGI [18] of 14.5 µM. It also gave a GI50 [19] of 5.37 µM, a TGI [19] of 33.6 µM and a GI50 [20] of 3.32 µM. The TGI [20] was 11.1 µM, the GI50 [21] was 5.81 µM and the TGI [21] was 20.2 µM. The GI50 [22] was 3.78 µM, the TGI [22] was 19.9 µM and the GI50 [23] was 12.4 µM. The TGI [23] was 29 µM, the GI50 [24] was 3.31 µM and the TGI [24] was 16.7 µM. For the same compound, the GI50 [25] was 3.67 µM, the TGI [25] was 13.6 µM and the GI50 [26] was 3.32 µM. It also gave a TGI [26] of 10.2 µM, a GI50 [27] of 6.14 µM and a TGI [27] of 19.9 µM. For the same compound, the GI50 [28] was 3.74 µM, the TGI [28] was 27.6 µM and the GI50 [29] was 3.25 µM. For the same compound, the TGI [29] was 18.5 µM, the GI50 [30] was 3.77 µM and the TGI [30] was 29.3 µM. For the same compound, the GI50 [31] was 4.23 µM, the TGI [31] was 16.8 µM and the GI50 [32] was 4.18 µM. For the same compound, the TGI [32] was 17.1 µM, the GI50 [33] was 3.63 µM and the TGI [33] was 13.6 µM. It also gave a GI50 [34] of 3.85 µM, a TGI [34] of 16.2 µM and a GI50 [35] of 5.1 µM. The TGI [35] was 18.1 µM, the GI50 [36] was 8.86 µM and the TGI [36] was 44.2 µM. The GI50 [37] was 5.28 µM, the TGI [37] was 20.5 µM and the GI50 [38] was 4.27 µM. The TGI [38] was 15.4 µM, the GI50 [39] was 8.62 µM and the TGI [39] was 32.2 µM. For the same compound, the GI50 [40] was 4.62 µM, the TGI [40] was 21.5 µM and the GI50 [41] was 3.93 µM. The TGI [41] was 13.5 µM, the GI50 [42] was 5.68 µM and the TGI [42] was 26.7 µM. It also gave a GI50 [43] of 4.45 µM, a TGI [43] of 16.3 µM and a GI50 [44] of 4.47 µM. The TGI [44] was 17.3 µM, the GI50 [45] was 4.43 µM and the TGI [45] was 51.9 µM. It also gave a GI50 [46] of 4.12 µM, a TGI [46] of 16.1 µM and a GI50 [47] of 9.92 µM. The TGI [47] was 25.6 µM, the GI50 [48] was 3.26 µM and the TGI [48] was 17.2 µM. The GI50 [49] was 3.59 µM, the TGI [49] was 14.6 µM and the GI50 [50] was 4.58 µM. It also gave a TGI [50] of 25.3 µM, a GI50 [51] of 3.17 µM and a TGI [51] of 11.2 µM. It also gave a GI50 [52] of 3.29 µM, a TGI [52] of 17.8 µM and a GI50 [53] of 2970 nM. The TGI [53] was 11.4 µM, the GI50 [54] was 10.3 µM and the TGI [54] was 40.2 µM. It also gave a GI50 [55] of 3.34 µM and a TGI [55] of 11.6 µM.
